Measured values published in patent US10517851B2, “Vasopressin-like action enhancer” (KYORIN PHARMACEUTICAL CO., LTD., priority 2015, dated 2019).

How the values were obtained:
female rats [1] = test: Antidiuretic action in water-loaded rats, urine collected for 2 hours (single agent); assay type: in vivo, rat; details: oral water load 25 mL/kg, FIG. 1 / FIG. 2; for antidiuretic action: intravenous dose series; for reduction of the urinary volume at the maximum: intravenous
Method: A method according to Watanabe et al. (Watanabe et al 2013 Antidiuretic effect of antimuscanrinic agents in rat model depends on C-fibre afferent nerves in the bladder. BJU Int 112(1) 131-6) was carried out with a partial modification. Female rats (10 to 11-week-old, obtained from Charles River Laboratories Japan) were intravenously administered (1 mL/kg) with a vehicle (saline) or imidafenacin ([…]) and subjected to an oral water load (25 mL/kg). After the rats were transferred to Bollmann cages, urine was collected for 2 hours from each rat via a catheter previously inserted and fixed to the bladder apex of the rat (8 rats in each group). The method according to Watanabe et al. (Watanabe et al 2013 Antidiuretic effect of antimuscanrinic agents in rat model depends on C-fibre afferent nerves in the bladder. BJU Int 112(1) 131-6) was carried out with a partial modification. Female rats (10 to 11-week-old, obtained from Charles River Laboratories Japan) were intravenously administered (1 mL/kg) with a vehicle (saline) or desmopressin ([…]) and subjected to an oral water load (25 mL/kg). After the rats were transferred to Bollmann cages, urine was collected for 2 hours from each rat via a catheter previously inserted and fixed to the bladder apex of the rat (8 rats in each group).

female rats [2] = test: Effect of mozavaptan (V2 antagonist) on antidiuretic action in water-loaded rats; assay type: in vivo, rat
Method: The method according to Watanabe et al. (Watanabe et al 2013 Antidiuretic effect of antimuscanrinic agents in rat model depends on C-fibre afferent nerves in the bladder. BJU Int 112(1) 131-6) was carried out with a partial modification. Female rats (10 to 11-week-old, obtained from Charles River Laboratories Japan) were intravenously administered with a vehicle (dimethylformamide or saline); mozavaptan (a dose of 0.1 mL/kg of a 30 mg/mL solution); 3 mg/kg of mozavaptan and imidafenacin (10 μg/kg or 300 μg/kg); 3 mg/kg of mozavaptan and desmopressin (0.003 μg/kg or 0.1 μg/kg); or 3 mg/kg of mozavaptan, imidafenacin (10 μg/kg or 300 μg/kg) and desmopressin (0.003 μg/kg or 0.1 μg/kg), and subjected to an oral water load (25 mL/kg). After the rats were transferred to Bollmann cages, urine was collected for 2 hours from each rat via a catheter previously inserted and fixed to the bladder apex of the rat (8 rats in each group).

vasopressin = details: rat; previous report BJU Int 112(1) 131-6; cited from earlier work

Compound | antidiuretic action (female rats [1]) | reduction of the urinary volume at the maximum (female rats [1]) | antidiuretic action of desmopressin at the maximum reaction dose in the presence of mozavaptan (female rats [2]; desmopressin 0.1 μg/kg with 3 mg/kg of mozavaptan, intravenous, FIG. 4) | antidiuretic action of desmopressin in the presence of mozavaptan (female rats [2]; desmopressin with 3 mg/kg of mozavaptan, intravenous, FIG. 4) | antidiuretic action on addition of imidafenacin to the mozavaptan and desmopressin group (female rats [2]; imidafenacin 300 μg/kg added to 3 mg/kg mozavaptan and 0.1 μg/kg desmopressin, FIG. 5) | antidiuretic action of imidafenacin in the presence of mozavaptan (female rats [2]; imidafenacin at the maximum reaction dose of 300 μg/kg with 3 mg/kg of mozavaptan, intravenous, FIG. 4) | release of vasopressin (vasopressin)
NC(=O)CC[C@@H]1NC(=O)[C@H](Cc2ccccc2)NC(=O)[C@H](Cc2ccc(O)cc2)NC(=O)CCSSC[C@@H](C(=O)N2CCC[C@H]2C(=O)N[C@H](CCCN=C(N)N)C(=O)NCC(N)=O)NC(=O)[C@H](CC(N)=O)NC1=O [desmopressin] | dose-dependent manner | about 100% | recovered | also suppressed |  |  | 
Cc1nccn1CCC(C(N)=O)(c1ccccc1)c1ccccc1 [imidafenacin] | dose-dependent manner | about 50% |  |  | further enhanced | completely suppressed | not affected
